Consider 9 compounds from the supplement of paper PMC11061612.

Common to all, as to assay: combination Emax (second highest fraction inhibited in the dose matrix, 72 h); higher = more inhibition; extreme values may be limits of the assay
Assay [1] concerns OVCAR-5 (Ovarian Carcinoma). The essentials:
(§1)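 Cell lines grown in DMEM/F12 or RPMI with 10% FBS were plated in 1536-well plates and held 24 hours at 37°C, 5% CO2 before 72 hours of exposure to two-drug dose matrices, with DMSO typically at 0.2%. CellTiter-Glo 2.0 luminescence gave viability, which was converted to inhibition. Vehicle wells were set to 0 and blank wells to 1. Combination Emax is the second-highest inhibition in the matrix, and Bliss excess is the observed combination effect minus the expected EA + EB − EA·EB, where EA and EB are the single-agent effects.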

The test system of another assay is LOXIMVI (Melanoma). Summed up:
as §1

For the next assay, the system named is GAMG (Glioblastoma). The essentials:
as §1

Another assay relates to NCI-H2722 (Mesothelioma). Summed up: as §1
Assay [2] deals with OV-56 (Ovarian Carcinoma). Summed up:
as §1

In assay [3] the test system is LS-123 (Colorectal Carcinoma). The essentials:
as §1

In a further assay the test system is A673 (Ewing's Sarcoma). Summed up:
as §1

The test system of assay [4] is OE21 (Esophageal Squamous Cell Carcinoma). The essentials:
as §1

The subject of assay [5] is NCI-H524 (Small Cell Lung Carcinoma). The essentials: as §1
The test system of assay [6] is NCI-H1568 (Lung Adenocarcinoma). The essentials:
as §1

For `Cn1cnc2c(F)c(Nc3ccc(Br)cc3Cl)c(C(=O)NOCCO)cc21` [Selumetinib] + CC(C)n1c(=O)n(C)c2cnc3cc(F)c(-c4ccc(OCCCN5CCCCC5)nc4)cc3c21 [AZD1390] (first compound max 10 µM, 7x7, partner max 0.3 µM), the “combination Emax” value in [1] turned out to be 0.563; in the assay with LOXIMVI (Melanoma) it was 0.658; with GAMG (Glioblastoma), 0.151; in the assay on NCI-H2722 (Mesothelioma) it was 0.0639; in assay [2], 0.133; in assay [3] it was 0.488. Besides, the “combination Emax” value in the assay with A673 (Ewing's Sarcoma) is 0.185; in assay [4], 0.386; in assay [5], 0.0936; in [6] it was 0.142.
On to `NC1(C(=O)N[C@@H](CCO)c2ccc(Cl)cc2)CCN(c2ncnc3[nH]ccc23)CC1` [Capivasertib] + CC(=O)c1c(C)c2cnc(Nc3ccc(N4CCNCC4)cn3)nc2n(C2CCCC2)c1=O [Palbociclib] (first compound max 10 µM, 7x7, partner max 10 µM), for which the “combination Emax” value in [1] came to 0.455; with LOXIMVI (Melanoma) it was 0.688; in the assay with GAMG (Glioblastoma) it was 0.596; with NCI-H2722 (Mesothelioma), 0.326; in assay [2] it was 0.41; in [3], 0.364. Moreover, the “combination Emax” value with A673 (Ewing's Sarcoma) turned out to be 0.271; in assay [4], 0.714; in assay [5], 0.666; in assay [6], 0.357.
As for `COc1nnc2ccc(N3CCC(c4ccc(OCCN5CCN(C)C(=O)[C@H]5C)cc4)CC3)nn12` [AZD5153] + CC1(C)CCC(CN2CCN(c3ccc(C(=O)NS(=O)(=O)c4ccc(NCC5CCOCC5)c([N+](=O)[O-])c4)c(Oc4cnc5[nH]ccc5c4)c3)CC2)=C(c2ccc(Cl)cc2)C1 [Venetoclax] (first compound max 1 µM, 7x7, partner max 1 µM), the “combination Emax” value in assay [1] was 0.514; with LOXIMVI (Melanoma), 0.882; in the assay on GAMG (Glioblastoma) it was 0.436; with NCI-H2722 (Mesothelioma) it was 0.471; in [2], 0.24; in [3], 0.43. The “combination Emax” value was 0.505 with A673 (Ewing's Sarcoma), 0.662 in [4], 0.694 in [5] and 0.251 in [6].
With `CN(CCO)CC[C@H](CSc1ccccc1)Nc1ccc(S(=O)(=O)NC(=O)c2ccc(N3CCC([C@@H](O)c4ccccc4-c4ccc(Cl)cc4)CC3)cc2)cc1S(=O)(=O)C(F)(F)F` [AZD4320] + C[C@@H]1COCCN1C2=NC(=NC(=C2)C3(CC3)[S@](=N)(=O)C)C4=C5C=CNC5=NC=C4 [AZD6738] (first compound max 1 µM, 7x7, partner max 10 µM), the “combination Emax” value in assay [1] stood at 0.842; in the assay with LOXIMVI (Melanoma), 0.892; in the assay on GAMG (Glioblastoma) it was 0.694; in the assay on NCI-H2722 (Mesothelioma), 0.503; in assay [2] it was 0.836; in the assay on A673 (Ewing's Sarcoma), 1. Further, the figures for the “combination Emax” value in [4], in assay [5] and in assay [6] were 0.84, 0.939 and 0.522, respectively.
For the compound `CC(=O)c1c(C)c2cnc(Nc3ccc(N4CCNCC4)cn3)nc2n(C2CCCC2)c1=O` [Palbociclib] + Cn1cnc2c(F)c(Nc3ccc(Br)cc3Cl)c(C(=O)NOCCO)cc21 [Selumetinib] (first compound max 10 µM, 7x7, partner max 10 µM), the “combination Emax” value in [1] turned out to be 0.587; with LOXIMVI (Melanoma), 0.744; in the assay with GAMG (Glioblastoma), 0.314; in the assay with NCI-H2722 (Mesothelioma) it was 0.113; in assay [2], 0.141; in [3] it was 0.428. Further, the “combination Emax” value in the assay on A673 (Ewing's Sarcoma) worked out at 0.177; in [4], 0.54; in assay [5] it was 0.739; in [6] it was 0.206.
On to `Cc1c2c(nn1C)CSCc1cc(n(C)n1)CSc1cc(c3ccccc3c1)OCCCc1c(C(=O)O)n(C)c3c-2c(Cl)ccc13` [AZD5991] + Cn1cnc2c(F)c(Nc3ccc(Br)cc3Cl)c(C(=O)NOCCO)cc21 [Selumetinib] (first compound max 1 µM, 7x7, partner max 3 µM), for which the “combination Emax” value in assay [1] was 0.543; in the assay with LOXIMVI (Melanoma), 0.513; with GAMG (Glioblastoma), 0.299; with NCI-H2722 (Mesothelioma), 0.238; in [2], 0.189; in assay [3] it was 0.455. The “combination Emax” value came out at 0.671 in the assay on A673 (Ewing's Sarcoma), 0.469 in assay [4], 0.336 in assay [5] and 0.563 in [6].
Turning to `CC(=O)c1c(C)c2cnc(Nc3ccc(N4CCNCC4)cn3)nc2n(C2CCCC2)c1=O` [Palbociclib] + Cc1c2c(nn1C)CSCc1cc(n(C)n1)CSc1cc(c3ccccc3c1)OCCCc1c(C(=O)O)n(C)c3c-2c(Cl)ccc13 [AZD5991] (first compound max 10 µM, 7x7, partner max 1 µM), the “combination Emax” value was 0.389 in [1]; 0.543 in the assay on LOXIMVI (Melanoma); 0.305 in the assay on GAMG (Glioblastoma); 0.213 in the assay on NCI-H2722 (Mesothelioma); 0.0925 in [2]; 0.207 in [3]. The “combination Emax” value in the assay on A673 (Ewing's Sarcoma) is 0.453; in assay [4], 0.393; in assay [5] it was 0.808; in assay [6], 0.418.
For the compound `NC1(C(=O)N[C@@H](CCO)c2ccc(Cl)cc2)CCN(c2ncnc3[nH]ccc23)CC1` [Capivasertib] + CC(C)n1c(=O)n(C)c2cnc3cc(F)c(-c4ccc(OCCCN5CCCCC5)nc4)cc3c21 [AZD1390] (first compound max 10 µM, 7x7, partner max 0.3 µM), the “combination Emax” value in [1] was determined as 0.32; with LOXIMVI (Melanoma), 0.401; with GAMG (Glioblastoma), 0.512; with NCI-H2722 (Mesothelioma), 0.34; in assay [2] it was 0.209; in assay [3], 0.325. Also, the “combination Emax” value in the assay on A673 (Ewing's Sarcoma) came to 0.292; in assay [4], 0.621; in [5], 0.343; in assay [6] it was 0.163.
Consider `CN(CCO)CC[C@H](CSc1ccccc1)Nc1ccc(S(=O)(=O)NC(=O)c2ccc(N3CCC([C@@H](O)c4ccccc4-c4ccc(Cl)cc4)CC3)cc2)cc1S(=O)(=O)C(F)(F)F` [AZD4320] + C1CN(CCC1(C(=O)N[C@@H](CCO)C2=CC=C(C=C2)Cl)N)C3=NC=NC4=C3C=CN4 [Capivasertib] (first compound max 1 µM, 7x7, partner max 3 µM), for which the “combination Emax” value in assay [1] was 0.17; in the assay with LOXIMVI (Melanoma), 0.202; in the assay on GAMG (Glioblastoma), 0.407; with NCI-H2722 (Mesothelioma), 0.22; in assay [2], 0.0773; with A673 (Ewing's Sarcoma), 0.905. For the same compound, the “combination Emax” value was determined as 0.441 in [4], 0.765 in assay [5] and 0.142 in [6].
